Experimental data as given in patent US20120269781A1, “METHOD FOR PROLIFERATING HAIR FOLLICLE STEM CELLS” (RNL BIO CO., LTD., priority 2009, published 2012).

Legend:
follicular stem cells [1] = experiment: Proliferation ability of follicular stem cells at various concentrations of ROCK inhibitor; format: cell-based, human; details: M199/F-12 medium, days 2-6
Protocol: In order to examine the proliferation ability of follicular stem cells at various concentrations of the ROCK inhibitor, the ROCK inhibitor was added at various concentrations to a M199/F-12 medium containing ITS+ premix, EGF, bFGF and antibiotic/antimycotic mixture, and the follicular stem cells obtained in Example 1 were cultured in the medium. Specifically, 10 μM of the ROCK inhibitor was added to M199/F-12 used in Example 1, and the P1 follicular stem cells were cultured in the M199/F-12 medium and collected by TrypLE-Express treatment. Then, the cells were added to each well of a 6-well plate at a density of 7.70×10^5 cells, and 2 ml of M199/F-12 was added to each well of the 6-well plate. The cell suspension was plated in each well of a 6-well plate, and then the ROCK inhibitor Y-27632 was added at concentrations of 10 nM, 100 nM, 1 μM, 10 μM and 100 μM to the 5 wells (excluding the well for a control group) of the 6-well plate, respectively, followed by culture of the follicular stem cells. The medium was replaced at 2-day intervals during culture of the cells, and the cells were photographed 2, 3, 4, 5 and 6 days after the start of cell culture.

follicular stem cells [2] = experiment: Culture of follicular stem cells in 9 kinds of media with or without ROCK inhibitor; format: cell-based, human; details: 10 μM
Protocol: Then, the follicular stem cells were added to each well of a 12-well plate, and 1 ml of each of control groups and test groups for 9 kinds of media containing ITS+ (insulin, transferrine, selenium) premix, EGF, bFGF and an antibiotic/antimycotic mixture was added to each well of the 12-well plate. 10 μl (10 μM) of the ROCK inhibitor Y-27632 was added to each of the test groups, and the cells were cultured.
At days 2, 3 and 4 after the start of culture, the state of proliferation of the follicular stem cells in each of the media was observed, and the results of the observation are shown in FIGS. 1 to 5.

SMILES: CC(N)C1CCC(C(=O)Nc2ccncc2)CC1 (stereo not drawn) [ROCK inhibitor, Y-27632]
- proliferation of the cells versus cells not treated (follicular stem cells [1]; 100 nM or less): did not significantly differ
- morphology / differentiation of the cells (follicular stem cells [1]; 1 μM or 100 μM): morphological change or differentiation of the cells appeared
- proliferation of the cells (follicular stem cells [1]; 1 μM or 100 μM): enhanced
- effect on the proliferation of the follicular stem cells compared to the control groups (follicular stem cells [2]; in M199/F12, MEM-alpha, DMEM L/G, DMEM H/G, MCDB 131 and IMEM medium): good effects
- effect on the proliferation of the follicular stem cells compared to the control groups (follicular stem cells [2]; in M199/F12 medium and MEM-alpha medium): most excellent effects
- effect on increase in the number and on the viability of follicular stem cells (follicular stem cells [2]; specific media containing the ROCK inhibitor): excellent effects
